Assay results: PMC8621770, “New Compounds with Bioisosteric Replacement of Classic Choline Kinase Inhibitors Show Potent Antiplasmodial Activity” (Pharmaceutics, 2021)
Where two headings read alike, the source gives them in different places.

Legend:
P. falciparum strain 3D7 [1] = test system: P. falciparum strain 3D7; parameters: method as in PMID 27616047, PMID 29880399, PMID 25089811; details: reference compounds; read-out: IC50 a (In vitro IC50 values against P. falciparum); cited from earlier work
P. falciparum strain 3D7 [2] = assay: Antimalarial activity, P. falciparum lactate dehydrogenase growth inhibition assay; assay type: cell-based, Plasmodium falciparum; details: for IC50: Plasmodium falciparum; for fold difference in antimalarial activity, bipyridinyl vs biphenylic counterparts: Fg-13 and Fg-17 vs Fg-14 and Fa-21
Protocol: Parasites of the P. falciparum strain 3D7 were grown in fresh group 0 positive human erythrocytes, obtained from the Centro Regional de Transfusion Sanguínea-SAS (Granada, Spain) and suspended at 5% haematocrit in RPMI 1640 containing 2% human serum, 0.2% NaHCO3, 0.5% Albumax II, 150 μM hypoxanthine, and […] gentamicin. Flasks were incubated at 37 °C, under 5% CO2 and 95% air mixture. […] The stock culture was then diluted with complete medium and non-parasitized erythrocytes to yield a haematocrit of 2% and parasitemia of 0.25%. Stock solutions of the test drugs were prepared at an initial concentration of 200 mM in DMSO, serially diluted and dispensed into triplicate in 96-well plates to yield final concentrations ranging from 0.0039 to 2 μM. The final well volume was 200 μL with a final concentration of DMSO 0.001%. Each plate also included positive growth controls, where only medium were added, and negative growth controls with 100 nM of chloroquine. […] A multidrop dispenser was used to add 50 μL of synchronized parasite culture per well. After 72 h of growth in presence of test compounds, the plates were stored frozen at −20 °C for at least 24 h. Next, they were thawed at room temperature. Parasite growth inhibition assays and IC50 determinations were carried out following the P. falciparum lactate dehydrogenase assay where parasite viability is quantified by measuring LDH activity upon APAD+ addition, a cofactor that is specific to the Plasmodium enzyme. To evaluate LDH activity, 140 μL of freshly made reaction mix, containing 143 mM sodium L-lactate, 143 μM APAD, 178.75 μM NBT, 1 U/mL diaphorase, 0.7% Tween 20 and 100 mM Tris-HCl (pH 8.0) were dispensed into plates. After 10 min of incubation in the dark at room temperature, absorbance was measured at 630 nm with a vmax precision multiwell plate reader from Molecular Devices, by using the accompanying SOFT maxPro software for analysis.

PfCK = molecular target: T1, PfCK (Plasmodium falciparum, UniProt Q8IM71); assay: Spectrophotometric coupled enzymatic assay for PfCK activity (substrate choline); assay type: biochemical; details: for IC50: IC50 PfCK b (compound concentration required to inhibit PfCK enzyme by 50%), substrate choline 4 mM, ATP 2 mM; for remaining activity at 25 µM: read-out: PfCK Fractional Activity at 25 µM
T1 construct: A truncated form of PfCK (Δ79-440) featuring an N-terminal 6× His-tag; 6xHis (N); host or cells: Escherichia coli BL21 (DE3) Star
Protocol: A truncated form of PfCK (Δ79-440) featuring an N-terminal 6× His-tag was purchased from Genescript (Piscataway, NJ, USA), cloned into a pET-28a vector and transformed into Escherichia coli BL21 (DE3) Star cells (Invitrogen, Carlsbad, CA, USA). The transformed bacteria were cultured in Luria-Bertani (LB) medium at 37 °C until OD600 = 0.6 and the expression was induced with 1 mM isopropyl β-D-1-thiogalactopyranoside (IPTG). The cell culture was grown overnight at 20 °C and 180 rpm. Cells were pelleted by centrifugation at 10,000 rpm, resuspended in 50 mM Tris/HCl pH 7.5, 500 mM NaCl, 0.2 mM phenylmethylsulphonyl fluoride (PMSF, Sigma Aldrich, St. Luis, MO, USA), DNase (Sigma Aldrich, St. Luis, MO, USA), 0.5 mM β-mercaptoethanol (Sigma Aldrich, St. Luis, MO, USA) and sonicated. Separation of the soluble from the insoluble fraction was obtained by centrifugation at 15,000 rpm and 4 °C. The target enzyme was purified by a two-step purification protocol. In the first step, the cell lysate was incubated for 45 min with Ni-NTA resin (Qiagen, Venlo, The Netherlands) in a gravity column. Then, the column was washed with 40 column volumes (CV) of 50 mM Tris/HCl pH 7.5, 300 mM NaCl, 10 mM imidazole and 1 CV of 50 mM Tris/HCl pH 7.5, 300 mM NaCl, 40 mM imidazole. Finally, the His-tagged enzyme was eluted from the column using a 50 mM Tris/HCl pH 7.5, 300 mM NaCl, 400 mM imidazole buffer. A subsequent size-exclusion chromatography step was implemented to further polish the sample using a HiPrep 26/60 Sephacryl 100 HR column (GE Healthcare, Little Chalfont, Buckinghamshire, UK) previously equilibrated with 20 mM Tris/HCl pH 7.5, 150 mM NaCl buffer. This second purification step afforded a pure protein sample. The protein production yield was estimated to be nearly 2.5 mg of recombinant enzyme per liter of bacterial culture.
A spectrophotometric 96-well plate assay for PfCK activity was established based on an assay previously described. The reaction mix was composed as follows: 100 mM Tris/HCl pH 7.5, 100 mM KCl, 10 mM MgCl2, 0.5 mM phosphoenolpyruvate, 0.25 mM NADH, 4 U of pyruvate kinase, 5 U lactate dehydrogenase, 2 mM ATP, 4 mM choline chloride and different concentrations of the selected compounds. All the necessary compounds for the assay were purchased from Sigma Aldrich (St. Luis, MO, USA) and the final assay volume was 200 μL. The enzymatic reaction was initiated by the addition of the enzyme at less than 10 nM concentration and the reaction rates were measured by monitoring the decrease in the absorbance at 340 nm for 20 min at room temperature using a Spark10M instrument (Tecan). Finally, the IC50 values for each compound were determined by plotting the enzyme fractional activity (f.a.) against the logarithm of compound concentration (log[I]). Curve-fitting was performed with a dose-response curve from Origin (OriginLab Corporation, Northampton, MA, USA), using the following equation: f.a.=1/1+10^logIC50−logI
All data points were collected in triplicate and the final dose-response curves were plotted with MATLAB (R2018a (9.4.0.813654), 2018, MathWorks, Natick, MA, USA). See curves in Figure S1 in Supplementary Materials.

[3] = Erythrocyte, P. falciparum 3D7 in human erythrocytes, 72 h, LDH readout, read-out: IC50 a (In vitro IC50 values against P. falciparum)

T1 sequence (Q8IM71 entry or part of it): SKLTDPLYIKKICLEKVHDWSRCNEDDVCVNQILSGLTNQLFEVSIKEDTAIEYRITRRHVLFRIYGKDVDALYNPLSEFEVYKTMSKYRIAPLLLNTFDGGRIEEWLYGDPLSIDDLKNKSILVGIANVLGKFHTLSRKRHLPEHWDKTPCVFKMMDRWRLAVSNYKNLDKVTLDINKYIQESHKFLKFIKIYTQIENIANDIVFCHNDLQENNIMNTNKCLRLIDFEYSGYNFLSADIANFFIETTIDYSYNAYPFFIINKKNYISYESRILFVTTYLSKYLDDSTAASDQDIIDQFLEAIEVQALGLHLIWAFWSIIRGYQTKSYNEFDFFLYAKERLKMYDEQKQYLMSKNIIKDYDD

SMILES	IC50 (P. falciparum strain 3D7 [1]) [µM]	fold decrease in antimalarial activity with respect to the reference compounds BR-23 / BR-25 (P. falciparum strain 3D7 [2]; Fg-9, Fa-21, Fg-14 vs BR-23, Ff-1, Ff-7, Ff-3 vs BR-25) [fold]	IC50 (P. falciparum strain 3D7 [2]; [3]) [µM]	IC50 (PfCK) [µM]	remaining activity at 25 µM (PfCK) [%]	melting point [°C]	fold difference in antimalarial activity, bipyridinyl vs biphenylic counterparts (P. falciparum strain 3D7 [2]) [fold]	IC50 (P. falciparum strain 3D7 [2]; 3D7, Erythrocyte, infected erythrocytes, P. falciparum, read-out: antimalarial activity (IC50), as given in the text) [µM]
CN(C)c1cc[n+](Cc2ccc(-c3ccc(C[n+]4ccc(N(C)c5ccc(Cl)cc5)cc4)cc3)cc2)cc1 [BR-31]	0.007 ± 0.0006							
CN(C)c1cc[n+](Cc2ccc(CCCCc3ccc(C[n+]4ccc(N(C)c5ccc(Cl)cc5)cc4)cc3)cc2)cc1 [BR-33]	0.045 ± 0.003							
[Br-].[Br-].c1cc2c(s1)c(N1CCCC1)nc[n+]2Cc1ccc(CCCCc2ccc(C[n+]3cnc(N4CCCC4)c4sccc43)cc2)cc1 [Ff-7, 1,1’-((butane-1,4-diylbis(4,1-phenylene))bis(methylene))bis(4-(pyrrolidin-1-yl)thieno[3,2-d]pyrimidin-1-ium) bromide]		10	0.0219	13.3 ± 3.82	55 ± 4.07	215 to 217		
[Br-].[Br-].c1cc2c(s1)c(N1CCCC1)nc[n+]2Cc1ccc(OCCOc2ccc(C[n+]3cnc(N4CCCC4)c4sccc43)cc2)cc1 [Ff-8, 1,1’-(((ethane-1,2-diylbis(oxy))bis(4,1-phenylene))bis(methylene))bis(4-(pyrrolidin-1-yl)thieno[3,2-d]pyrimidin-1-ium) bromide]			0.0352		63.1 ± 6.74	217 to 219		
[Br-].[Br-].c1cc2c(N3CCCCCC3)nc[n+](Cc3ccc(CCCCc4ccc(C[n+]5cnc(N6CCCCCC6)c6ccsc65)cc4)cc3)c2s1 [Ff-35, (1,1’((butane1,4diylbis(4,1phenylene))bis(methylene))bis(4-(azepan-1-yl)thieno[2,3-d]pyrimidin-1-ium)) bromide]			0.0484		57.6 ± 12.3	117 to 119		
[Br-].[Br-].c1cc2c(s1)c(N1CCCC1)cc[n+]2Cc1ccc(CCc2ccc(C[n+]3ccc(N4CCCC4)c4sccc43)cc2)cc1 [Fg-11, 4,4’-((ethane-1,2-diylbis(4,1-phenylene))bis(methylene))bis(7-(pyrrolidin-1-yl)thieno[3,2-b]pyridin-4-ium) bromide]			0.232	16.5 ± 1.43	33 ± 1.48	253 to 255		
[Br-].[Br-].c1cc2c(N3CCCC3)nc[n+](Cc3ccc(-c4ccc(C[n+]5cnc(N6CCCC6)c6ccsc65)cn4)nc3)c2s1 [Fg-13, 1,1’-([2,2’-bipyridine]-5,5’-diylbis(methylene))bis(4-(pyrrolidin-1-yl)thieno[2,3-d]pyrimidin-1-ium) bromide]			0.143		99.1 ± 12	238 to 240	> 10	
[Br-].[Br-].c1cc2c(N3CCCC3)nc[n+](Cc3ccc(CCc4ccc(C[n+]5cnc(N6CCCC6)c6ccsc65)cc4)cc3)c2s1 [Fg-15, 1,1’-((ethane-1,2-diylbis(4,1-phenylene))bis(methylene))bis(4-(pyrrolidin-1-yl)thieno[2,3-d]pyrimidin-1-ium) bromide]			0.0127		97.5 ± 9.22	293 to 295		~0.011
[Br-].[Br-].c1cc2c(s1)c(N1CCCC1)nc[n+]2Cc1ccc(CCc2ccc(C[n+]3cnc(N4CCCC4)c4sccc43)cc2)cc1 [Fg-16, 1,1’-((ethane-1,2-diylbis(4,1-phenylene))bis(methylene))bis(4-(pyrrolidin-1-yl)thieno[3,2-d]pyrimidin-1-ium) bromide]			0.0206	26.5 ± 2.44	79.7 ± 10.3	231 to 233		
[Br-].[Br-].c1cc2c(s1)c(N1CCCC1)nc[n+]2Cc1ccc(-c2ccc(C[n+]3cnc(N4CCCC4)c4sccc43)cn2)nc1 [Fg-17, 1,1’-([2,2’-bipyridine]-5,5’-diylbis(methylene))bis(4-(pyrrolidin-1-yl)thieno[3,2-d]pyrimidin-1-ium) bromide]			0.227		50.3 ± 7.88	330 to 332	> 10	
[Br-].[Br-].c1cc2c(N3CCCCCC3)nc[n+](Cc3ccc(-c4ccc(C[n+]5cnc(N6CCCCCC6)c6ccsc65)cn4)nc3)c2s1 [Fg-20, 1,1’-([2,2’-bipyridine]-5,5’-diylbis(methylene))bis(4-(azepan-1-yl)thieno[2,3-d]pyrimidin-1-ium) bromide]			0.0976		96.6 ± 13.1	289 to 291		
[Br-].[Br-].c1cc2c(N3CCCCC3)nc[n+](Cc3ccc(CCc4ccc(C[n+]5cnc(N6CCCCC6)c6ccsc65)cc4)cc3)c2s1 [Fg-31, 1,1’-((ethane-1,2-diylbis(4,1-phenylene))bis(methylene))bis(4-(piperidin-1-yl)thieno[2,3-d]pyrimidin-1-ium) bromide]			0.0347		87.4 ± 2.2	295 to 297		
[Br-].[Br-].c1cc2c(N3CCCCC3)nc[n+](Cc3ccc(-c4ccc(C[n+]5cnc(N6CCCCC6)c6ccsc65)cn4)nc3)c2s1 [Fg-32, 1,1’-([2,2’-bipyridine]-5,5’-diylbis(methylene))bis(4-(piperidin-1-yl)thieno[2,3-d]pyrimidin-1-ium) bromide]			> 0.25		83.8 ± 9.53	267 to 269		
C[N+]1(C)CCOC(O)(c2ccc(-c3ccc(C4(O)C[N+](C)(C)CCO4)cc3)cc2)C1 (stereo not drawn) [HC-3]	> 50							
CN(C)c1cc[n+](Cc2ccc(CCCCc3ccc(C[n+]4ccc(N(C)C)cc4)cc3)cc2)cc1 [MN58b]	0.0035							
C/[N+](c1ccc(Cl)cc1)=c1\ccn(Cc2ccc(-c3ccc(Cn4cc/c(=[N+](/C)c5ccc(Cl)cc5)c5ccccc54)cc3)cc2)c2ccccc12 [RSM-932A]	0.0265							
